Source: PubChem BioAssay AID743396 (Broad Institute, 2014)
Values joined by “and” are separate entries in the source; they are usually repeats but may differ in a detail not shown here. Equal entries are not always repeated. Active and inactive are the calls of the source.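 Rule for the calls: active = fitted curve reaches a 40% rise in fluorescent cells at or below the top valid dose; inactive = opposite-direction effect, or the rest.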

Experiments:
[1] = test system: mTEFS fibroblasts autofluorescence, GFP-channel imaging, 3 days; experiment: autofluorescent compounds in non-GFP fibroblasts, dose response, artefact control for X-chromosome reactivation project, imaging, mTEFS fibroblasts, cherry-pick (AID 743396); details: cells pretreated with 5-aza-dC;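 for % fluorescent cells increase: raw share of Hoechst-counted cells scored GFP positive without control normalization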
[2] = as above; details: mTEFS fibroblasts autofluorescence, GFP-channel imaging, 3 days, cells pretreated with 5-aza-dC

Compound	% fluorescent cells increase ([2]; at 19.5 µM (top of the series))	also measured
N#Cc1c(-c2ccccc2F)cc(C2CC2)nc1SCC(=O)c1cccs1		AC40 [1]: 9.82 µM
C=CCN1C(=O)[C@@H]2Cc3c([nH]c4ccccc34)C(c3cc(OC)c(OC)c(OC)c3)N2C1=S (stereo partly drawn)		AC40 [1]: 15.5 µM
CCOC(=O)/C(=C/C=C1\Sc2cc(C)c(C)cc2N1CC)C(C)=O		AC40 [1]: 12.5 µM
Cc1cccc(-c2cccc3[nH]c4c(c23)CCN2C(=O)[C@H]3[C@H](C)ON(C)[C@H]3C[C@@H]42)c1		AC40 [1]: 14.7 µM
C[n+]1c2cc(N)ccc2cc2ccc(N)cc21		AC40 [1]: 0.522 µM and 0.378 µM
CC1CN(C(=O)/C=C/c2ccc([N+](=O)[O-])s2)CC(C)O1 (stereo not drawn)		AC40 [1]: 10.6 µM
CCN1/C(=C/c2ccc3cc(C)cc(C)c3[n+]2CC)Sc2cc(C)ccc21		AC40 [1]: 10.4 µM
N#C/C(=C\c1ccc(N2CCCCC2)o1)C(=O)Nc1cccc(Br)c1		AC40 [1]: 0.919 µM
CC(C)(C)NC(=S)N/N=C\c1ccc(-c2ccc([N+](=O)[O-])cc2)o1		AC40 [1]: 7.84 µM
Nc1c(Br)cc2c3c(cccc13)-c1ccccc1-2		AC40 [1]: > 19.5 µM (inactive)
Oc1cc2c(c(Cl)c1O)CCNCC2c1ccccc1 (stereo not drawn)	-0.007% (inactive)	
CC(=Nc1ccc(Cl)cc1N)c1c(O)cc(C)oc1=O	0.643% (inactive)	
Cn1c(=O)[nH]c(=O)c2c1nc1n2CCCN1Cc1ccccc1	-0.011% (inactive)	
NS(=O)(=O)c1cccc(NC(=O)COC(=O)Cc2ccc(S(=O)(=O)N3CCOCC3)s2)c1	0% (inactive)	
CCN(CC)CCCNC1=C(Cl)C(=O)c2ccccc2C1=O	-0.011% (inactive)	
COc1ccc(N=Nc2ccc(O)c(P(=O)(c3ccccc3)c3ccccc3)c2)cc1	0% (inactive)	
O=C(NCc1ccccc1)c1ccccc1Br	3.38% (inactive)	
COCCN(C(=O)c1ccc2c(c1)C(=O)N(c1ccccc1Cl)C2=O)c1c(N)n(CC(C)C)c(=O)[nH]c1=O	1.41% (inactive)	
COC(=O)Nc1ccc(S(=O)(=O)N2CCCC(C(=O)N3CCN(C)CC3)C2)cc1 (stereo not drawn)	0% (inactive)	
Nc1cc2c3c(cccc3c1)C(=O)N(CCN1CCCC1)C2=O	-0.003% (inactive)	
Cc1noc(C)c1NC(=O)N(C)C[C@@H]1Oc2ccc(NC(=O)C3CC3)cc2CC(=O)N([C@@H](C)CO)C[C@@H]1C		% fluorescent cells increase ([2]; at 21 µM (top of the series)): 0.068% (inactive)

Compound	% fluorescent cells increase ([2]; at 19.5 µM (top of the series))	also measured
O=C1N(c2ccccc2)C[C@@H]2C[C@@H](c3cc4ccccc4o3)N3CCC[C@@]123	-0.007% (inactive)	
O=C(NC1=C(NC2CCS(=O)(=O)C2)C(=O)c2ccccc2C1=O)c1ccccc1 (stereo not drawn)	0% (inactive)	
CCN(CC)S(=O)(=O)c1ccc(Cl)c(NC(=O)COC(=O)c2c(C)noc2C)c1	0.009% (inactive)	
Cc1onc(-c2c(Cl)cccc2Cl)c1-c1nc2cc(Cl)ccc2c(=O)o1	-0.011% (inactive)	
CCc1ccc(CN(C)C(=O)c2cc(S(=O)(=O)N3CCOCC3)ccc2N2CCCC2)cc1	0.027% (inactive)	
C=CCn1c(=S)[nH]c2scc(-c3ccco3)c2c1=O	0% (inactive)	
COc1cccc(CNC(=O)CNC(=S)N(Cc2ccccc2)Cc2ccccc2F)c1	0.054% (inactive)	
O=C(Nc1ccccc1N1CCCCC1)c1cnccn1	0.039% (inactive)	
COC(C(=O)NCc1ccc(C)cc1)c1ccccc1 (stereo not drawn)	0% (inactive)	
COc1ccc(CCn2c(C)cc(C(=O)CN3C(=O)C(=O)N(Cc4ccco4)C3=O)c2C)cc1	0% (inactive)	
CCN(CC)c1ccc(/C=C/C(=O)C2C(=O)C=C(C)OC2=O)cc1 (stereo not drawn)	1.2% (inactive)	
CCc1nc(C)cn1S(=O)(=O)c1ccc([N+](=O)[O-])cc1	0.011% (inactive)	
C[C@H]1CN([C@@H](C)CO)C(=O)c2cc(NC(=O)CCCCCC(=O)Nc3ccccc3N)ccc2O[C@H]1CN(C)C(=O)Nc1ccccc1	0.017% (inactive)	
CNc1ncnc(Sc2ccc(Cl)cc2)c1[N+](=O)[O-]	0% (inactive)	
COc1ccc(-n2c(=O)n(Cc3ccccc3)c(=O)c3[nH]cnc32)cc1	0.008% (inactive)	
ClC1CCCCC1n1nnc2ccccc21 (stereo not drawn)	0.006% (inactive)	
O=C(Nc1ccc(F)cc1)N1CC(=O)N2[C@H](CO)[C@H](c3ccc(C#Cc4ccc(F)cc4)cc3)[C@@H]2C1	-0.166% (inactive)	
CCOC(=O)Nc1ccc2nc(-c3cscn3)[nH]c2c1	0.274% (inactive)	
Cn1cc(/C=C/c2cc[n+](C)cc2)c2cc(Cl)ccc21	6.85% (inactive)	
Cc1ccc(Cn2ccsc2=NC(=O)CCl)cc1	0% (inactive)	
CC(C)c1ccc(N2C(=O)/C(=C/N(C)C)SC2=S)cc1	0.026% (inactive)	

Compound	% fluorescent cells increase ([2]; at 19.5 µM (top of the series))	also measured
COc1ccc(S(=O)(=O)N(C)C[C@H]2OCCCC[C@@H](C)Oc3ccc(NC(=O)NC(C)C)cc3C(=O)N([C@@H](C)CO)C[C@H]2C)cc1	0.53% (inactive)	
Cc1c(CN2CCCC(C(=O)c3cccc(OC(C)C)c3)C2)c(=O)n(-c2ccccc2)n1C (stereo not drawn)	0.037% (inactive)	
N/C(=N\c1nc(CSc2nc3ccccc3s2)cc(=O)[nH]1)Nc1ccc(F)cc1	2.21% (inactive)	
Nc1[nH]c(=O)nc(Nc2ccccc2)c1N=O	0% (inactive)	
C[C@H](CO)N1C[C@H](C)[C@H](CN(C)C(=O)Nc2ccc(F)cc2)Oc2ncc(C#Cc3cccc(F)c3)cc2C1=O	-0.166% (inactive)	
C[C@@H]1CN([C@@H](C)CO)C(=O)c2ccccc2-c2ccccc2CO[C@@H]1CN(C)C(=O)Nc1ccc2c(c1)OCO2	-0.044% (inactive)	
Nc1ccccc1Nc1cc(-c2ccccc2)[nH]n1	2.52% (inactive)	
COc1ccc(/C=C\c2onc(C)c2S(=O)(=O)N2CCC(C(=O)NCc3ccco3)CC2)cc1	0.029% (inactive)	
COc1ccc(-c2nnc(NC(=O)c3ccc(F)cc3)o2)cc1	0% (inactive)	
O=CNc1ccc2c(c1)Cc1cc([N+](=O)[O-])ccc1-2	0.119% (inactive)	
COCCNC(=S)N(Cc1cccnc1)Cc1ccc(OC)c(OC)c1	1.33% (inactive)	
Cc1noc(C)c1S(=O)(=O)Nc1ccc2c(c1)C(=O)N([C@H](C)CO)C[C@H](C)[C@H](CN(C)C(=O)Nc1ccc(F)cc1)OCCCC[C@H](C)O2	0% (inactive)	
COC(=O)c1cnn(-c2ccccc2)c1N	0.008% (inactive)	
CC1=NN(c2ccc(C)c(C)c2)C(=O)/C1=C\C=C\c1ccc([N+](=O)[O-])o1	-0.007% (inactive)	
CCSc1nnc(NC(=O)c2cc(OC)c(OC)c(OC)c2)s1	0% (inactive)	
CC(C)CC(=O)Nc1c2c(nn1-c1ccc(F)cc1)CSC2	0.007% (inactive)	
CCOC(=O)c1nn(-c2ccc3ccccc3c2)cc1O	0.04% (inactive)	
COc1ccc(CNC(=O)c2ccc(-c3cnn(C)c3)c3ccoc23)cc1OC	1.28% (inactive)	
CN(Cc1nc(CCc2ccccc2)no1)Cc1cccs1	0.295% (inactive)	
COc1ccc2c3c([nH]c2c1)[C@@H](CO)N(Cc1ccccc1F)CC31CN(C(=O)C2CCOCC2)C1	-0.038% (inactive)	
Oc1cccc(/C=N/NC(=S)NCCN2CCOCC2)c1O	0% (inactive)	
